How the values were obtained:
Assay type in all cases: in vivo
[1] = system: Globo H-specific IgM antibody; experiment: Immunization in mice with different Globo H:KLH ratios and antibody test by ELISA; conditions: Balb/c mice, s.c. day 0, 7, 14, 21, with saponin adjuvant, sera, compared with PBS control or between weight ratios
Protocol: Different samples of the glycoconjugates (Globo H-KLH) were stored at 4° C., and mixed with a saponin adjuvant under a laminar flow hood. The resultant vaccine compositions were placed on ice and transported to animal facility for subsequent immunization.
Balb/c mice of approximately eight weeks old were given Globo H-KLH glycoconjugate with different carbohydrate-to-protein (Globo H: KLH) ratios once every week for four weeks (Day 0, 7, 14, and 21) via subcutaneous injection. Blood samples were collected through retro-orbital or facial vein without anticoagulant pre-immune or Day 0, and three days after each vaccination (Day 10, 17 and 24). Samples were then centrifuged to separate sera and red cells. Sera were collected and stored at −20° C., which were later analyzed by ELISA. Mann-Whitney t-test was used for statistical analysis.

[2] = system: Globo H-specific IgG and IgM antibodies; experiment: Globo H-specific antibody test by ELISA in plasma of immunized rats; conditions: Lewis rats, after immunization
Protocol: (§1) Different samples of the glycoconjugates (Globo H-KLH) as prepared in Example 1 were stored at 4° C., and mixed with a saponin adjuvant under a laminar flow hood. The resultant vaccine compositions were placed on ice and transported to animal facility for subsequent immunization.
(§2) The rats were immunized on day 0, 7, 14, and 21. Peripheral blood mononuclear cells (PBMC) and plasma were collected on day 0, 3, 10, 17, 24, and 31. Spleen, lymph node, and peritoneal wash were harvested on day 31.
The production of Globo H-specific antibodies in the plasma from the immunized rats was determined by ELISA assay. […] There was no response of Globo H-specific IgG and IgM antibody in rats treated with PBS only.

[3] = system: B cells and T cells (CD3T, CD4T, CD8T) in PBMC; experiment: Analysis of immune effector cell subpopulations in PBMC of immunized rats by flow cytometry; conditions: Lewis rats, s.c. immunization day 0, 7, 14, 21 with saponin adjuvant
Protocol: as §1, §2
The peripheral blood mononuclear cells (PBMCs) were isolated from the animals and then various immune effector cell subpopulations in the PBMC were identified by flow cytometry using specific antibodies against different cell markers The PBMCs, isolated from the immunized rats on day 0, 3, 10, 17, 24, and 31, were stained with different fluorescence (FITC)-conjugated antibodies and placed on ice for 30 minutes.

## Fucα(1→2) Galβ(1→3) GalNAcβ(1→3) Galα(1→4) Galβ(1→4) Gluβ(1-O-ethylhydrazyl-1-carbonyl-cyclohexyl-4-(methyl-N-maleimido)-3-(thiobutyl-imidyl)-Keyhole Limpet Hemocyanin (KLH) [OBI-822]
[1]
  Globo H-specific IgM antibody responses: significantly induce
[2]
  time at which titers of Globo H-specific IgG began to rise: 10 days
  time at which titers of Globo H-specific IgG peaked: 17 days
[3]
  day at which CD3T, CD4T and CD8T cells appeared: 24 days
  day at which the B cell population first appeared: 3 days
[3]; flow cytometry
  expansion of B cells and T cells compared to the PBS control group: significantly expanded

— patent US20160339089A1, “IMMUNOGENIC/THERAPEUTIC GLYCOCONJUGATE COMPOSITIONS AND USES THEREOF” (OBI PHARMA, INC., priority 2014, published 2016)
